# Experiments:
# SF-539 = experiment: NCI 60-cell line growth inhibition assay: SF-539; assay type: cell-based; details: Homo sapiens
# TK-10 = experiment: NCI 60-cell line growth inhibition assay: TK-10; assay type: cell-based; details: Homo sapiens
# SNB-19 = experiment: NCI 60-cell line growth inhibition assay: SNB-19; assay type: cell-based; details: Homo sapiens
# IGROV1 = experiment: NCI 60-cell line growth inhibition assay: IGROV1; assay type: cell-based; details: Homo sapiens, IGROV-1, Ovarian
# Excerpt: (§1) The following data in Table 4 summarize the growth inhibition properties of several compounds of the present invention against 60-human transformed cell lines.
# SF-295 = experiment: NCI 60-cell line growth inhibition assay: SF-295; assay type: cell-based; details: Homo sapiens
# SK-OV-3 = experiment: NCI 60-cell line growth inhibition assay: SK-OV-3; assay type: cell-based; details: Homo sapiens
# HS 578T = experiment: NCI 60-cell line growth inhibition assay: HS 578T; assay type: cell-based; details: Homo sapiens, Hs-578T
# UACC-257 = experiment: NCI 60-cell line growth inhibition assay: UACC-257; assay type: cell-based; details: Homo sapiens
# OVCAR-8 = experiment: NCI 60-cell line growth inhibition assay: OVCAR-8; assay type: cell-based; details: Homo sapiens
# RPMI-8226 = experiment: NCI 60-cell line growth inhibition assay: RPMI-8226; assay type: cell-based, human
# Excerpt: as §1
# SK-MEL-5 = experiment: NCI 60-cell line growth inhibition assay: SK-MEL-5; assay type: cell-based; details: Homo sapiens
# NCI/ADR-RES = assay type: cell-based; details: Homo sapiens
# 786-0 = experiment: NCI 60-cell line growth inhibition assay: 786-0; assay type: cell-based; details: Homo sapiens
# SN12C = experiment: NCI 60-cell line growth inhibition assay: SN12C; assay type: cell-based; details: Homo sapiens
# MCF-7 cells = experiment: MCF-7 GI50 determination (crystal violet growth inhibition); assay type: cell-based, human; details: Homo sapiens, MCF7, 96 h, read-out: MCF-7 Cells GI50 (nM)
# Outline: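 MCF-7 cells seeded at 2×10^4 cells/well, grown 24 h drug-free, then exposed to 10-fold compound dilutions for 4 days. Glutaraldehyde-fixed cells stained with crystal violet, absorbance read at 570 nm; GI=100×(T/T0) against day-0 control OD, GI50 from growth inhibition versus concentration plots.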
# HCT-116 = experiment: NCI 60-cell line growth inhibition assay: HCT-116; assay type: cell-based; details: Homo sapiens
# OVCAR-3 = experiment: NCI 60-cell line growth inhibition assay: OVCAR-3; assay type: cell-based; details: Homo sapiens
# CAKI-1 = experiment: NCI 60-cell line growth inhibition assay: CAKI-1; assay type: cell-based; details: Homo sapiens
# HeLa S-3 cells = experiment: HeLa GI50 determination (SRB growth inhibition); assay type: cell-based, human; details: Homo sapiens, HeLa S3, 48 h, read-out: HeLa Cells GI50 (nM)
# Outline: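 Cells plated at 2×10^4/well; day-0 plate TCA-fixed, test compounds added at 10-fold dilutions for 2 days. SRB staining, absorbance at 490 nm; GI = 100×(T−T0)/(C−T0), GI50 from growth inhibition vs. concentration plots.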
# EKVX = experiment: NCI 60-cell line growth inhibition assay: EKVX; assay type: cell-based; details: Homo sapiens
# UACC-62 = experiment: NCI 60-cell line growth inhibition assay: UACC-62; assay type: cell-based; details: Homo sapiens
# M14 = experiment: NCI 60-cell line growth inhibition assay: M14; assay type: cell-based; details: Homo sapiens
# A549/ATCC = experiment: NCI 60-cell line growth inhibition assay: A549/ATCC; assay type: cell-based; details: Homo sapiens, A549
# HCC-2998 = experiment: NCI 60-cell line growth inhibition assay: HCC-2998; assay type: cell-based; details: Homo sapiens, HCC 2998
# HCT-15 = experiment: NCI 60-cell line growth inhibition assay: HCT-15; assay type: cell-based; details: Homo sapiens
# HOP-92 = experiment: NCI 60-cell line growth inhibition assay: HOP-92; assay type: cell-based; details: Homo sapiens
# KM12 = experiment: NCI 60-cell line growth inhibition assay: KM12; assay type: cell-based; details: Homo sapiens
# CCRF-CEM = experiment: NCI 60-cell line growth inhibition assay: CCRF-CEM; assay type: cell-based; details: Homo sapiens, Leukemia
# Excerpt: as §1
# ACHN = experiment: NCI 60-cell line growth inhibition assay: ACHN; assay type: cell-based; details: Homo sapiens
# PC-3 = experiment: NCI 60-cell line growth inhibition assay: PC-3; assay type: cell-based; details: Homo sapiens
# MCF7 = experiment: NCI 60-cell line growth inhibition assay: MCF7; assay type: cell-based; details: Homo sapiens
# HOP-62 = experiment: NCI 60-cell line growth inhibition assay: HOP-62; assay type: cell-based; details: Homo sapiens
# SW-620 = experiment: NCI 60-cell line growth inhibition assay: SW-620; assay type: cell-based; details: Homo sapiens
# NCI-H522 = assay type: cell-based; details: Homo sapiens
# [1] = Homo sapiens, Leukemia, RPMI-8226
Compound,GI50 (SF-539),GI50 (TK-10),GI50 (SNB-19),GI50 (IGROV1),GI50 (SF-295),GI50 (SK-OV-3),GI50 (HS 578T),GI50 (UACC-257),GI50 (OVCAR-8),GI50 (RPMI-8226; [1]),GI50 (SK-MEL-5),GI50 (NCI/ADR-RES),GI50 (786-0),GI50 (SN12C),GI50 (MCF-7 cells),GI50 (HCT-116),GI50 (OVCAR-3),GI50 (CAKI-1),GI50 (HeLa S-3 cells),GI50 (EKVX),further results
"CC[C@]1(O)C[C@H]2CN(CCc3c([nH]c4ccc(C#Cc5ccccc5)cc34)[C@@](C(=O)OC)(c3cc4c(cc3OC)N(C)[C@H]3[C@@](O)(C(=O)OC)[C@H](OC(C)=O)[C@]5(CC)C=CCN6CC[C@]43[C@@H]65)C2)C1 [Example 19, 12′-(2-phenylethynyl) vinblastine]",1790 nM,313 nM,1790 nM,2210 nM,293 nM,1880 nM,1850 nM,46000 nM,32200 nM,252 nM,757 nM,1440 nM,889 nM,2470 nM,800 nM,300 nM,207 nM,557 nM,> 1000 nM,2790 nM,GI50 (UACC-62): 2040 nM; GI50 (M14): 260 nM; GI50 (A549/ATCC): 37300 nM; GI50 (HCC-2998): 182 nM; GI50 (HCT-15): 8350 nM; GI50 (HOP-92): 335 nM; GI50 (KM12): 206 nM; GI50 (CCRF-CEM): 263 nM; GI50 (ACHN): 22000 nM; GI50 (PC-3): 280 nM; GI50 (MCF7): 396 nM; GI50 (HOP-62): 571 nM; GI50 (SW-620): 1770 nM; GI50 (NCI-H522): 1810 nM
"CCCC(=O)/C=C/c1ccc2[nH]c3c(c2c1)CCN1C[C@H](C[C@@](O)(CC)C1)C[C@]3(C(=O)OC)c1cc2c(cc1OC)N(C)[C@H]1[C@@](O)(C(=O)OC)[C@H](OC(C)=O)[C@]3(CC)C=CCN4CC[C@]21[C@@H]43 [Example 29, 12′-(3-oxohex-1-enyl)vinblastine]",21 nM,3240 nM,< 10 nM,1710 nM,568 nM,16.9 nM,628 nM,19300 nM,22.6 nM,14.1 nM,420 nM,18100 nM,< 10 nM,< 10 nM,515 nM,< 10 nM,59.7 nM,1200 nM,515 nM,10800 nM,GI50 (UACC-62): < 10 nM; GI50 (M14): < 10 nM; GI50 (A549/ATCC): 28.7 nM; GI50 (HCC-2998): < 10 nM; GI50 (HCT-15): 274 nM; GI50 (HOP-92): 9930 nM; GI50 (KM12): 212 nM; GI50 (CCRF-CEM): 28.8 nM; GI50 (ACHN): 93.7 nM; GI50 (PC-3): 44.2 nM; GI50 (MCF7): 10.5 nM; GI50 (HOP-62): < 10 nM; GI50 (SW-620): 1300 nM; GI50 (NCI-H522): 31.4 nM
"CCC1=C[C@H]2CN(CCc3c([nH]c4ccc(Br)cc34)[C@@](C(=O)OC)(c3cc4c(cc3OC)N(C)[C@H]3[C@@](O)(C(=O)OC)[C@H](OC(C)=O)[C@]5(CC)C=CCN6CC[C@]43[C@@H]65)C2)C1 [Example 97, 12′-bromoanhydro vinblastine]",< 10 nM,< 10 nM,< 10 nM,< 10 nM,< 10 nM,< 10 nM,< 10 nM,3950 nM,< 10 nM,< 10 nM,< 10 nM,77.9 nM,< 10 nM,< 10 nM,50 nM,< 10 nM,< 10 nM,589 nM,30 nM,10200 nM,"GI50 (RPMI-8226; Renal, RPMI-8226 (last line of Table 4, repeats the Leukemia line)): < 10 nM; GI50 (UACC-62): < 10 nM; GI50 (M14): < 10 nM; GI50 (A549/ATCC): < 10 nM; GI50 (HCC-2998): < 10 nM; GI50 (HCT-15): < 10 nM; GI50 (HOP-92): 12200 nM; GI50 (KM12): < 10 nM; GI50 (CCRF-CEM): < 10 nM; GI50 (ACHN): 64.1 nM; GI50 (PC-3): < 10 nM; GI50 (MCF7): < 10 nM; GI50 (HOP-62): < 10 nM; GI50 (SW-620): < 10 nM; GI50 (NCI-H522): < 10 nM"

# Source: patent US7745619B2, “Vinca derivatives” (priority 2003, dated 2010)
